In US8546451B2 (priority 2005, dated 2013):

Assays:
liver X receptor (LXR) = assay: Cross-reactivity transcriptional activation assay, LXR; format: cell-based, human; details: agonist and antagonist modes
Text: (§1) Compound IV was screened for cross-reactivity against rat isoforms of glucocorticoid receptor (GR), mineralocorticoids receptor (MR), progesterone receptor (PR), androgen receptor (AR) and human isoforms of farnesoid X receptor (FXR), liver X receptor (LXR), peroxisome proliferator-activated receptors (PPAR-α and PPAR-γ), and retinoid X receptor (RXR-α) in both agonist and antagonist modes in transcriptional activation assays.

[1] = biological target: retinoid X receptor (RXR-α) (Homo sapiens (Human), UniProt P19793); assay: Cross-reactivity transcriptional activation assay, RXR-α; format: cell-based; details: agonist and antagonist modes
Chain of retinoid X receptor (RXR-α) (P19793 whole entry): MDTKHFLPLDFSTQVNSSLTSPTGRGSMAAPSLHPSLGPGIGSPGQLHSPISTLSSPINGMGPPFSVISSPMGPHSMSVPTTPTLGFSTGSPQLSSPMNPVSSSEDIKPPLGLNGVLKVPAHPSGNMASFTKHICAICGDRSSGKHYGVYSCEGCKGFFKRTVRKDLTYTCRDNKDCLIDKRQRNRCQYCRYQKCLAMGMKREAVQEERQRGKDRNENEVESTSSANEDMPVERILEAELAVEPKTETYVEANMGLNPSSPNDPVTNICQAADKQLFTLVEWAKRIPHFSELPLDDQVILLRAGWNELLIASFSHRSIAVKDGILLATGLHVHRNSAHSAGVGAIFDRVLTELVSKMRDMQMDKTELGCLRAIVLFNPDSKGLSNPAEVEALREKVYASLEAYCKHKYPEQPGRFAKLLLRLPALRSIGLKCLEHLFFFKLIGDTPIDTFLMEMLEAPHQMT
Text: as §1

[2] = test system: serum testosterone and total androgens; assay: Testosterone suppression in Cynomolgus monkeys; format: in vivo; details: 30 mg/kg oral daily
CYP1A2 = assay: CYP450 induction in vitro, CYP1A2; format: in vitro ADME
CYP3A4 = assay: CYP450 induction in vitro, CYP3A4; format: in vitro ADME
[3] = test system: isolated canine Purkinje fibers; assay: Action potential duration in isolated canine Purkinje fibers; details: 10 and 100 μM
[4] = Renal function after single oral dose; format: in vivo
[5] = test system: human peripheral blood lymphocytes; assay: Chromosomal aberrations in human peripheral blood lymphocytes in vitro; format: cell-based; details: concentrations up to 200 μM

For `O=C(c1ccc(O)c(F)c1)N(c1ccc(O)cc1)c1ccc(F)cc1` [Compound IV, 3-fluoro-N-(4-fluorophenyl)-4-hydroxy-N-(4-hydroxyphenyl)benzamide], the “agonist or antagonist activity” value (liver X receptor (LXR)) was “did not display any agonist or antagonist activity”, the “agonist or antagonist activity” value [1] was “did not display any agonist or antagonist activity” and the “Testosterone Percent reduction from baseline” value (“Testosterone Percent reduction” for short) ([2]; Animal 1, Day 2) was 16%. The “Testosterone Serum level” value ([2]; Animal 1, Day 2) was 937 pg/mL, the “Total Androgens Percent reduction from baseline” value ([2]; Animal 1, Day 2) was 37% and the “Total Androgens Serum level” value ([2]; Animal 1, Day 2) was 1178 pg/mL. For the same compound, the “Testosterone Percent reduction” value ([2]; Animal 1, Day 3) was 30%, the “Testosterone Serum level” value ([2]; Animal 1, Day 3) was 784 pg/mL and the “Total Androgens Percent reduction from baseline” value ([2]; Animal 1, Day 3) was 42%. For the same compound, the “Total Androgens Serum level” value ([2]; Animal 1, Day 3) was 1078 pg/mL, the “Testosterone Percent reduction” value ([2]; Animal 1, Day 4) was 51% and the “Testosterone Serum level” value ([2]; Animal 1, Day 4) was 552 pg/mL. For the same compound, the “Total Androgens Percent reduction from baseline” value ([2]; Animal 1, Day 4) was 47%, the “Total Androgens Serum level” value ([2]; Animal 1, Day 4) was 988 pg/mL and the “Testosterone Percent reduction” value ([2]; Animal 1, Day 5) was 64%. The “Testosterone Serum level” value ([2]; Animal 1, Day 5) was 403 pg/mL, the “Total Androgens Percent reduction from baseline” value ([2]; Animal 1, Day 5) was 48% and the “Total Androgens Serum level” value ([2]; Animal 1, Day 5) was 966 pg/mL. For the same compound, the “Testosterone Percent reduction” value ([2]; Animal 1, Day 6) was 58%, the “Testosterone Serum level” value ([2]; Animal 1, Day 6) was 474 pg/mL and the “Total Androgens Percent reduction from baseline” value ([2]; Animal 1, Day 6) was 56%. The “Total Androgens Serum level” value ([2]; Animal 1, Day 6) was 819 pg/mL, the “Testosterone Percent reduction” value ([2]; Animal 3, Day 2) was 22% and the “Testosterone Serum level” value ([2]; Animal 3, Day 2) was 479 pg/mL. For the same compound, the “Total Androgens Percent reduction from baseline” value ([2]; Animal 3, Day 2) was 48%, the “Total Androgens Serum level” value ([2]; Animal 3, Day 2) was 847 pg/mL and the “Testosterone Percent reduction” value ([2]; Animal 3, Day 3) was 29%. The “Testosterone Serum level” value ([2]; Animal 3, Day 3) was 437 pg/mL, the “Total Androgens Percent reduction from baseline” value ([2]; Animal 3, Day 3) was 52% and the “Total Androgens Serum level” value ([2]; Animal 3, Day 3) was 786 pg/mL. The “Testosterone Percent reduction” value ([2]; Animal 3, Day 4) was 33%, the “Testosterone Serum level” value ([2]; Animal 3, Day 4) was 415 pg/mL and the “Total Androgens Percent reduction from baseline” value ([2]; Animal 3, Day 4) was 44%. The “Total Androgens Serum level” value ([2]; Animal 3, Day 4) was 924 pg/mL, the “Testosterone Percent reduction” value ([2]; Animal 3, Day 5) was 55% and the “Testosterone Serum level” value ([2]; Animal 3, Day 5) was 276 pg/mL. The “Total Androgens Percent reduction from baseline” value ([2]; Animal 3, Day 5) was 60%, the “Total Androgens Serum level” value ([2]; Animal 3, Day 5) was 664 pg/mL and the “Testosterone Percent reduction” value ([2]; Animal 3, Day 6) was 64%. For the same compound, the “Testosterone Serum level” value ([2]; Animal 3, Day 6) was 221 pg/mL, the “Total Androgens Percent reduction from baseline” value ([2]; Animal 3, Day 6) was 56% and the “Total Androgens Serum level” value ([2]; Animal 3, Day 6) was 726 pg/mL. The “induction of CYP1A2” value (CYP1A2) was “does not induce”, the “induction of CYP3A4” value (CYP3A4) was “does not induce” and the APD50 [3] was “decreased”. For the same compound, the APD90 [3] was “decreased”, the “effects on renal function” value ([4]; highest dose tested (100 mg/kg)) was “increased urine volume output and urinary excretion of potassium and chloride” and the “effects on renal function” value ([4]; single oral dose of up to 30 mg/kg) was “No significant effects”. The “structural or numeric chromosomal aberrations” value [5] was “did not induce structural or numeric chromosomal aberrations”.
